Reference: article PMC9925432, “Thioquinoline derivatives conjugated to thiosemicarbazide as potent tyrosinase inhibitors with anti-melanogenesis properties” (Scientific Reports, 2023)
Like-named read-outs stand apart in the source and are kept apart here.

Key:
[1] = MTT assay for cell viability, HEK 293; format: cell-based; settings: human, HEK 293 cells, 48 h, MTT, mean ± S.E.M.; for viability at 48 h, 16 µM: HEK 293, 16 µM; for viability at 48 h, 32 µM: HEK 293, 32 µM; for viability at 48 h, 64 µM: HEK 293, 64 µM
Protocol: (§1) The cytotoxic activity of all derivatives against the HEK 293 cell line and 10g against A375 (at a density of 5 × 10^3 cells/ml) using 3-(4,5-dimethylthiazol-2-yl)-2,5- diphenyltetrazolium bromide (MTT) assay were performed. Cells were grown at 37 °C in the presence of CO2 5% in DMEM (Gibco BRL, Grand Island, NY, USA), 10% fetal bovine serum (FBS, Gibco BRL), and penicillin/streptomycin (100 IU/mL and 100 µg/mL, respectively). Next cells were seeded in a 96-well plate and incubated at 37 ^∘C with derivatives at different concentrations for 48 h. Following the treatment, cells were incubated with MTT (0.5 mg/ml) at 37 ^∘C for 3 h. The MTT-containing medium was then removed, and 100 μl of DMSO was added to each well, mixed thoroughly with a 10 min shake to dissolve formazan crystals. The absorbance of each well was measured at 540 nm[33].

[2] = target: T1, Mushroom tyrosinase (EC 1.14.18.1) (Agaricus bisporus, UniProt C7FF04); assay: Tyrosinase inhibitory assay (colorimetric, diphenolase activity, L-Dopa); format: biochemical; settings: for IC50: L-Dopa as substrate, means ± RSD of 3 independent experiments
T1 construct: purchased Sigma Chemical Co
T1 sequence (C7FF04 1-392 limits assumed): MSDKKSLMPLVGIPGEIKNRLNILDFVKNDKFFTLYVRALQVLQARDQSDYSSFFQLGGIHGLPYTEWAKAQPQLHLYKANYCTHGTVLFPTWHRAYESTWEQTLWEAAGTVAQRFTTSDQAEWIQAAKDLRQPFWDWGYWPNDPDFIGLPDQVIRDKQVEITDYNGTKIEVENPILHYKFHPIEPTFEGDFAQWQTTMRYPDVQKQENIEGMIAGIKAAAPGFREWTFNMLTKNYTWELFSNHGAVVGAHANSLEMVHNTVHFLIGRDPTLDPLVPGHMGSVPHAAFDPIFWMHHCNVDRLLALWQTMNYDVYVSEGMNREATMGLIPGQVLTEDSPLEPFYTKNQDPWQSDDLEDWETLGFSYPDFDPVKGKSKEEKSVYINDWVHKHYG
Protocol: Mushroom tyrosinase (EC 1.14.18.1) (Sigma Chemical Co.) was assayed using L-Dopa as the substrate as reported in our previous studies with some modifications[30]–[32]. The enzyme diphenolase activity was monitored spectrophotometrically by observing dopachrome formation at 490 nm. All the test samples were first dissolved in DMSO at 10 mM and diluted to the required concentrations. Initially, in a 96-well microplate, 10 µl of test samples were added to 160 µl of 50 mM phosphate buffer (pH = 6.8) and then 10 µl tyrosinase (500 U mL^−1) was added. After the mixture was pre-incubated at 28 °C for 20 min, 20 µl of L-Dopa solution (7 mM) was added to the mixture. After 10 min incubation absorbance of samples was measured. DMSO without test compounds was used as the control, and kojic acid was used as a positive control. Each assay was conducted as three separate replicates. The inhibitory activity of the tested compounds was expressed as the concentration that inhibited 50% of the enzyme activity (IC50). […]

HEK 293 cell line = assay: MTT assay for cell viability, HEK 293; format: cell-based; settings: for Cell viability (%): HEK 293, 32 µM, 48 h, MTT, mean ± S.E.M., 32 µM
Protocol: as §1

mushroom tyrosinase = settings: cited from earlier work

SMILES | viability at 48 h, 16 µM [1] | viability at 48 h, 32 µM [1] | viability at 48 h, 64 µM [1] | IC50 [2] | melting point | Cell viability (%) (HEK 293 cell line) | IC50 (mushroom tyrosinase; L-Dopa as substrate) | IC50 (mushroom tyrosinase; L-tyrosine as substrate) | IC50 (mushroom tyrosinase; tyrosinase) | IC50 (HEK 293 cell line; Homo sapiens, HEK293, HEK 293, MTT, read-out: IC50 (positive control)) | fold improvement in the potency compared to 10a ([2]; ratio of tyrosinase IC50 values)
Cc1ccc(CNC(=O)CSc2nc3ccccc3cc2/C=N/NC(N)=S)cc1 [Compound 10l, (E)-2-((3-((2-carbamothioylhydrazineylidene)methyl)quinolin-2-yl)thio)-N-(4-methylbenzyl)acetamide] | 75.1 ± 1.99% | 62.6 ± 1.58% | 50 ± 0.88% | 78.5 µM | 180 to 182 °C | – | – | – | – | – | –
NC(=S)N/N=C/c1cc2ccccc2nc1SCC(=O)Nc1ccccc1 [Compound 10a, (E)-2-((3-((2-carbamothioylhydrazineylidene)methyl)quinolin-2-yl)thio)-N-phenylacetamide] | 90.19 ± 0.89% | 72.2 ± 2.13% | 65.8 ± 1.99% | 155 µM | 180 to 182 °C | – | – | – | – | – | –
Cc1ccc(NC(=O)CSc2nc3ccccc3cc2/C=N/NC(N)=S)cc1 [Compound 10b, (E)-2-((3-((2-carbamothioylhydrazono)methyl)quinolin-2-yl)thio)-N-(p-tolyl)acetamide] | 96.2 ± 2.58% | 81.5 ± 2.91% | – | ≥ 200 µM | 180 to 185 °C | – | – | – | – | – | –
NC(=S)N/N=C/c1cc2ccccc2nc1SCC(=O)Nc1ccc(Cl)cc1Cl [Compound 10h, (E)-2-((3-((2-carbamothioylhydrazono)methyl)quinolin-2-yl)thio)-N-(2,4-dichlorophenyl)acetamide] | 96.9 ± 1.59% | 78.7 ± 2.19% | 67.9 ± 3.21% | 169 µM | 188 to 190 °C | – | – | – | – | – | –
NC(=S)N/N=C/c1cc2ccccc2nc1SCC(=O)NCc1ccc(F)cc1 [Compound 10m, (E)-2-((3-((2-carbamothioylhydrazono)methyl)quinolin-2-yl)thio)-N-(4-fluorobenzyl)acetamide] | 95.5 ± 2.97% | > 85% | 71.2 ± 5.42% | 53.3 µM | 186 to 188 °C | 86.44 ± 1.17% | – | – | – | – | –
COc1ccc(NC(=O)CSc2nc3ccccc3cc2/C=N/NC(N)=S)cc1 [Compound 10e, (E)-2-((3-((2-carbamothioylhydrazineylidene)methyl)quinolin-2-yl)thio)-N-(4-methoxyphenyl)acetamide] | 85.6 ± 1.08% | 71.2 ± 3.86% | 62 ± 4.15% | 47.4 µM | 191 to 193 °C | – | – | – | – | – | –
NC(=S)N/N=C/c1ccc(OCc2cn(CC(=O)NCc3ccccc3)nn2)cc1 [G] | – | – | – | – | – | – | 0.17 µM | 0.11 µM | – | – | –
NC(=S)N/N=C/c1cc2ccccc2nc1SCC(=O)Nc1ccc([N+](=O)[O-])cc1 [Compound 10f, (E)-2-((3-((2-carbamothioylhydrazineylidene)methyl)quinolin-2-yl)thio)-N-(4-nitrophenyl)acetamide] | 97.67 ± 0.55% | > 85% | 80 ± 2.05% | 39.8 µM | 180 to 182 °C | 88.12 ± 4.05% | – | – | – | – | –
OC[C@H]1O[C@@H](Oc2ccc(O)cc2)[C@H](O)[C@@H](O)[C@@H]1O [arbutin] | – | – | – | – | – | – | – | – | 180 µM | – | –
CCc1ccc(NC(=O)CSc2nc3ccccc3cc2/C=N/NC(N)=S)cc1 [Compound 10c, (E)-2-((3-((2-carbamothioylhydrazono)methyl)quinolin-2-yl)thio)-N-(4-ethylphenyl)acetamide] | 82.55 ± 0.5% | 69.3 ± 1.81% | 58.3 ± 1.03% | 85.3 µM | 178 to 180 °C | – | – | – | – | – | –
COc1cccc2c1C(=O)c1c(O)c3c(c(O)c1C2=O)C[C@@](O)(C(=O)CO)C[C@@H]3O[C@H]1C[C@H](N)[C@H](O)[C@H](C)O1 [Doxorubicin, reference compound] | – | – | – | – | – | – | – | – | – | 1.3 µM | –
NC(=S)N/N=C/c1cc2ccccc2nc1SCC(=O)Nc1ccccc1Br [Compound 10j, (E)-N-(2-bromophenyl)-2-((3-((2-carbamothioylhydrazono)methyl)quinolin-2-yl)thio)acetamide] | 91.2 ± 4.35% | > 85% | 79.9 ± 3.16% | ≥ 200 µM | – | 88.65 ± 2.31% | – | – | – | – | –
Cc1cccc(NC(=O)CSc2nc3ccccc3cc2/C=N/NC(N)=S)c1C [Compound 10d, (E)-2-((3-((2-carbamothioylhydrazono)methyl)quinolin-2-yl)thio)-N-(2,3-dimethylphenyl)acetamide] | 87.52 ± 0.65% | 79.12 ± 0.62% | 71.4 ± 2.97% | 101 µM | 185 to 187 °C | – | – | – | – | – | –
NC(=S)N/N=C/c1cc2ccccc2nc1SCC(=O)NCc1ccccc1 [Compound 10k, (E)-N-benzyl-2-((3-((2-carbamothioylhydrazono)methyl)quinolin-2-yl)thio)acetamide] | 77.3 ± 2.55% | 65.4 ± 3.49% | 51.1 ± 1.06% | 62 µM | 183 to 185 °C | – | – | – | – | – | around 2.5 fold
